# Laboratory results: US8299065B2, “Antibacterial condensed thiazoles” (Biota Europe Ltd., priority 2007, dated 2012)
# System: Enterococcus faecalis ATCC 29212
# Assay: MIC testing against Enterococcus faecalis ATCC 29212
# Assay type: cell-based
# Settings: not given
# Procedure: Minimum Inhibitory Concentration (MIC) Testing Compounds of this invention were tested for antimicrobial activity by susceptibility testing in liquid or on solid media. MICs for compounds against each strain were determined by the broth microdilution or agar dilution method according to the guidelines of the Clinical Laboratories and Standards Institute, formerly the National Committee for Clinical Laboratory Standards (Clinical Laboratories and Standards Institute. Methods for Dilution Antimicrobial Susceptibility Tests for Bacteria That Grow Aerobically; Approved Standard—Seventh Edition. Document M7-A7. CLSI, Wayne, Pa., 2006; Clinical Laboratories and Standards Institute. Methods for Antimicrobial Susceptibility Testing of Anaerobic Bacteria; Approved Standard—Sixth Edition. Document M11-A6. CLSI, Wayne, Pa., 2004).
row,Molecule,"MICs against Enterococcus faecalis, Activity"
1,"tert-butyl 3-((4-(2-(3-ethylureido)-6-fluorobenzo[d]thiazol-5-yl)-5-yl)-2,2′-dioxo-2H-1,4′-bipyridin-1′(2′H)-yl)methyl)piperidine-1-carboxylate [Example 64]",B (MICs of 0.25-1 μg/ml)

# Same assay, conditions: ATCC29212, read-out: MICs against Enterococcus faecalis, Activity
row,Molecule,MIC
1,"CCNC(=O)Nc1nc2cc(-c3cnc(N4CCCC(C(=O)OC)C4)nc3)c(F)cc2s1 (stereo not shown) [Example 45, methyl 1-(5-(2-(3-ethylureido)-6-fluorobenzo[d]thiazol-5-yl)pyrimidin-2-yl)piperidine-3-carboxylate]",0.25 to 1 µg/mL
2,"CCNC(=O)Nc1nc2cc(-c3cnc(N4CCCC(C(=O)O)C4)nc3)c(F)cc2s1 (stereo not shown) [Example 46, 1-(5-(2-(3-ethylureido)-6-fluorobenzo[d]thiazol-5-yl)pyrimidin-2-yl)piperidine-3-carboxylic acid]",0.25 to 1 µg/mL
3,"CCNC(=O)Nc1nc2cc(-c3cnn(C(C)C(=O)OC)c3)c(F)cc2s1 (stereo not shown) [Example 47, methyl 2-(4-(2-(3-ethylureido)-6-fluorobenzo[d]thiazol-5-yl)-1H-pyrazol-1-yl)propanoate]",2 to 16 µg/mL
4,"CCNC(=O)Nc1nc2cc(-c3c[nH]c4ncccc34)c(F)cc2s1 [Example 48, 1-ethyl-3-(6-fluoro-5-(1H-pyrrolo[2,3-b]pyridin-3-yl)benzo[d]thiazol-2-yl)urea]",0.25 to 1 µg/mL
5,"CCNC(=O)Nc1nc2cc(-c3cc(C)n(CC4CCN(C)C4)c(=O)c3)c(F)cc2s1 (stereo not shown) [Example 50, 1-ethyl-3-(6-fluoro-5-(6-methyl-1-((1-methylpyrrolidin-3-yl)methyl)-2-oxo-1,2-dihydropyridin-4-yl)benzo[d]thiazol-2-yl)urea]",2 to 16 µg/mL
6,"CCNC(=O)Nc1nc2cc(-c3cc(C)n(CC4CCCCN4C)c(=O)c3)c(F)cc2s1 (stereo not shown) [Example 51, 1-ethyl-3-(6-fluoro-5-(6-methyl-1-((1-methylpiperidin-2-yl)methyl)-2-oxo-1,2-dihydropyridin-4-yl)benzo[d]thiazol-2-yl)urea]",2 to 16 µg/mL
7,"CCNC(=O)Nc1nc2cc(-c3cc(C)n(Cc4cn(C)cn4)c(=O)c3)c(F)cc2s1 [Example 52, 1-ethyl-3-(6-fluoro-5-(6-methyl-1-((1-methyl-1H-imidazol-4-yl)methyl)-2-oxo-1,2-dihydropyridin-4-yl)benzo[d]thiazol-2-yl)urea]",0.25 to 1 µg/mL
8,"CCNC(=O)Nc1nc2cc(-c3cc(C)n(CC4CCCN4C(=O)OC(C)(C)C)c(=O)c3)c(F)cc2s1 (stereo not shown) [Example 53, tert-butyl 2-((4-(2-(3-ethylureido)-6-fluorobenzo[d]thiazol-5-yl)-6-methyl-2-oxopyridin-1(2H)-yl)methyl)pyrrolidine-1-carboxylate]",2 to 16 µg/mL
9,"CCNC(=O)Nc1nc2cc(-c3cc(C)n(CCCN(C)C)c(=O)c3)c(F)cc2s1 [Example 54, 1-(5-(1-(3-(dimethylamino)propyl)-6-methyl-2-oxo-1,2-dihydropyridin-4-yl)-6-fluorobenzo[d]thiazol-2-yl)-3-ethylurea]",2 to 16 µg/mL
10,"CCNC(=O)Nc1nc2cc(-c3ccc(-c4noc(C)n4)nc3)c(F)cc2s1 [Example 55, 1-ethyl-3-(6-fluoro-5-(6-(5-methyl-1,2,4-oxadiazol-3-yl)pyridin-3-yl)benzo[d]thiazol-2-yl)urea]",0.25 to 1 µg/mL
11,"CCNC(=O)Nc1nc2cc(-c3cc(OC)ccn3)c(F)cc2s1 [Example 56, 1-ethyl-3-[6-fluoro-5-(4-methoxy-pyridin-2-yl)-benzothiazol-2-yl]-urea]",2 to 16 µg/mL
12,"CCNC(=O)Nc1nc2cc(-c3cnc(N4CCN(C)CC4)nc3)c(F)cc2s1 [Example 57, 1-ethyl-3-(6-fluoro-5-(2-(4-methylpiperazin-1-yl)pyrimidin-5-yl)benzo[d]thiazol-2-yl)urea]",2 to 16 µg/mL
13,"CCNC(=O)Nc1nc2cc(-c3cncc(OC)c3)c(F)cc2s1 [Example 58, 1-ethyl-3-(6-fluoro-5-(5-methoxypyridin-3-yl)benzo[d]thiazol-2-yl)urea]",0.25 to 1 µg/mL
14,"CCNC(=O)Nc1nc2cc(-c3cncc(O)c3)c(F)cc2s1 [Example 59, 1-ethyl-3-(6-fluoro-5-(5-hydroxypyridin-3-yl)benzo[d]thiazol-2-yl)urea]",0.25 to 1 µg/mL
15,"CCNC(=O)Nc1nc2cc(-c3ccc(C(N)=NO)nc3)c(F)cc2s1 [Example 60, 5-(2-(3-ethylureido)-6-fluorobenzo[d]thiazol-5-yl)-N′-hydroxypicolinimidamide]",0.25 to 1 µg/mL
16,"CCNC(=O)Nc1nc2cc(-c3ccn(C)c(=O)c3)c(F)cc2s1 [Example 61, 1-ethyl-3-(6-fluoro-5-(1-methyl-2-oxo-1,2-dihydropyridin-4-yl)benzo[d]thiazol-2-yl)urea]",0.25 to 1 µg/mL
17,"CCNC(=O)Nc1nc2cc(-c3ccn(CCN4CCOCC4)c(=O)c3)c(F)cc2s1 [Example 62, 1-ethyl-3-(6-fluoro-5-(1-(2-morpholinoethyl)-2-oxo-1,2-dihydropyridin-4-yl)benzo[d]thiazol-2-yl)urea]",0.25 to 1 µg/mL

row,Molecule,MIC
1,"CCNC(=O)Nc1nc2cc(-c3ccn(CCN(C)C)c(=O)c3)c(F)cc2s1 [Example 63, 1-(5-(1-(2-(dimethylamino)ethyl)-2-oxo-1,2-dihydropyridin-4-yl)-6-fluorobenzo[d]thiazol-2-yl)-3-ethylurea]",2 to 16 µg/mL
2,"CCNC(=O)Nc1nc2cc(-c3ccc(CO)nc3)c(F)cc2s1 [Example 65, 1-ethyl-3-(6-fluoro-5-(6-(hydroxymethyl)pyridin-3-yl)benzo[d]thiazol-2-yl)urea]",0.25 to 1 µg/mL
3,"CCNC(=O)Nc1nc2cc(-c3ccc(CN4CCOCC4)nc3)c(F)cc2s1 [Example 66, 1-ethyl-3-(6-fluoro-5-(6-(morpholinomethyl)pyridin-3-yl)benzo[d]thiazol-2-yl)urea]",2 to 16 µg/mL
4,"CCNC(=O)Nc1nc2cc(-c3ccn(C4CCNC4)c(=O)c3)c(F)cc2s1 (stereo not shown) [Example 67, 1-ethyl-3-(6-fluoro-5-(2-oxo-1-(pyrrolidin-3-yl)-1,2-dihydropyridin-4-yl)benzo[d]thiazol-2-yl)urea]",2 to 16 µg/mL
5,"CCNC(=O)Nc1nc2cc(-c3ccc(CC(=O)NC)nc3)c(F)cc2s1 [Example 68, 2-{5-[2-(3-ethyl-ureido)-6-fluoro-benzothiazol-5-yl]-pyridin-2-yl}-N-methyl-acetamide]",2 to 16 µg/mL
6,"CCNC(=O)Nc1nc2cc(-c3cncs3)c(F)cc2s1 [Example 69, 1-ethyl-3-(6-fluoro-5-(thiazol-5-yl)benzo[d]thiazol-2-yl)urea]",2 to 16 µg/mL
7,"CCNC(=O)Nc1nc2cc(-c3cnc(S(C)(=O)=O)nc3)c(F)cc2s1 [Example 70, 1-ethyl-3-(6-fluoro-5-(2-(methylsulfonyl)pyrimidin-5-yl)benzo[d]thiazol-2-yl)urea]",2 to 16 µg/mL
8,"CCNC(=O)Nc1nc2cc(-c3cccnc3)c(OC)cc2s1 [Example 71, 1-ethyl-3-(6-methoxy-5-(pyridin-3-yl)benzo[d]thiazol-2-yl)urea]",0.25 to 1 µg/mL
9,"CCNC(=O)Nc1nc2cc(-c3ccn(C)c(=O)c3)c(OC)cc2s1 [Example 72, 1-ethyl-3-(6-methoxy-5-(1-methyl-2-oxo-1,2-dihydropyridin-4-yl)benzo[d]thiazol-2-yl)urea]",0.25 to 1 µg/mL
10,"CCNC(=O)Nc1nc2cc(-c3cccnc3)c(C)cc2s1 [Example 73, 1-ethyl-3-(6-methyl-5-(pyridin-3-yl)benzo[d]thiazol-2-yl)urea]",2 to 16 µg/mL
11,"CCNC(=O)Nc1nc2cc(-c3ccn(C)c(=O)c3)c(C)cc2s1 [Example 74, 1-ethyl-3-(6-methyl-5-(1-methyl-2-oxo-1,2-dihydropyridin-4-yl)benzo[d]thiazol-2-yl)urea]",0.25 to 1 µg/mL
12,"CCNC(=O)Nc1nc2cc(-c3cccnc3)cnc2s1 [Example 75, 1-ethyl-3-(6-(pyridin-3-yl)thiazolo[5,4-b]pyridin-2-yl)urea]",2 to 16 µg/mL
13,"CCNC(=O)Nc1nc2cc(-c3ccc(NC(C)=O)nc3)cnc2s1 [Example 76, N-(5-(2-(3-ethylureido)thiazolo[5,4-b]pyridin-6-yl)pyridin-2-yl)acetamide]",2 to 16 µg/mL
14,"CCNC(=O)Nc1nc2cc(-c3cc(C)oc(=O)c3)cnc2s1 [Example 77, 1-ethyl-3-(6-(6-methyl-2-oxo-2H-pyran-4-yl)thiazolo[5,4-b]pyridin-2-yl)urea]",2 to 16 µg/mL
15,"CCNC(=O)Nc1nc2cc(-c3cc(C)n(C(C)c4ccc(C)nc4)c(=O)c3)c(F)cc2s1 (stereo not shown) [Example 78, 1-ethyl-3-(6-fluoro-5-{6-methyl-1-[1-(6-methyl-pyridin-3-yl)-ethyl]-2-oxo-1,2-dihydro-pyridin-4-yl}-benzothiazol-2-yl)-urea]",0.25 to 1 µg/mL
16,"CCNC(=O)Nc1nc2cc(-c3ccn(Cc4ncccc4OC)c(=O)c3)c(F)cc2s1 [Example 79, 1-Ethyl-3-{6-fluoro-5-[1-(3-methoxy-pyridin-2-ylmethyl)-2-oxo-1,2-dihydro-pyridin-4-yl]-benzothiazol-2-yl}-urea]",< 0.25 µg/mL
